How the values were obtained:
Format in all cases: in vivo
[1] = system: Abutilon theophrasti; test: Pre-emergence herbicidal action against ABUTH; details: visual score after 3 weeks vs untreated controls
Text: (§1) Seeds of monocotyledonous and dicotyledonous weed plants and crop plants are laid out in sandy loam soil in wood-fiber pots and covered with soil. The compounds of the invention, formulated in the form of wettable powders (WP) or as emulsion concentrates (EC), are then applied to the surface of the covering soil in the form of an aqueous suspension or emulsion at a water application rate equivalent to 600 to 800 l/ha, with addition of 0.2% wetting agent. After the treatment, the pots are placed in a greenhouse and kept under good growth conditions for the trial plants. The damage to the test plants is scored visually after a test period of 3 weeks by comparison with untreated controls (herbicidal activity in percent (%): 100% activity=the plants have died, 0% activity=like control plants). […] The tables below illustrate, in an illustrative manner, the post-emergence herbicidal action of the compounds of the invention, the herbicidal activity being stated in percent.

[2] = system: Alopecurus myosuroides; test: Pre-emergence herbicidal action against ALOMY; details: visual score after 3 weeks vs untreated controls
Text: as §1

[3] = system: Amaranthus retroflexus; test: Pre-emergence herbicidal action against AMARE; details: visual score after 3 weeks vs untreated controls
Text: as §1

[4] = system: Echinochloa crus-galli; test: Pre-emergence herbicidal action against ECHCG; details: 80 g/ha; visual score after 3 weeks vs untreated controls
Text: as §1

[5] = system: Matricaria inodora; test: Pre-emergence herbicidal action against MATIN; details: visual score after 3 weeks vs untreated controls
Text: as §1

[6] = system: Digitaria sanguinalis; test: Pre-emergence herbicidal action against DIGSA
Text: as §1

[7] = system: Polygonum convolvulus; test: Pre-emergence herbicidal action against POLCO
Text: as §1

[8] = system: Setaria viridis; test: Pre-emergence herbicidal action against SETVI
Text: as §1

[9] = system: Veronica persica; test: Pre-emergence herbicidal action against VERPE; details: 80 g/ha
Text: as §1

[10] = system: Viola tricolor; test: Pre-emergence herbicidal action against VIOTR
Text: as §1

[11] = system: Abutilon theophrasti; test: Post-emergence herbicidal action against ABUTH
Procedure: (§2) Seeds of monocotyledonous and dicotyledonous weed and crop plants are laid out in sandy loam soil in wood-fiber pots, covered with soil and cultivated in a greenhouse under good growth conditions. 2 to 3 weeks after sowing, the test plants are treated at the one-leaf stage. The compounds of the invention, formulated in the form of wettable powders (WP) or as emulsion concentrates (EC), are then sprayed onto the green parts of the plants in the form of an aqueous suspension or emulsion at a water application rate equivalent to 600 to 800 l/ha, with addition of 0.2% wetting agent. After the test plants have been left to stand in the greenhouse under optimal growth conditions for about 3 weeks, the action of the preparations is assessed visually in comparison to untreated controls (herbicidal action in percent (%): 100% activity=the plants have died, 0% activity=like control plants). […] The tables below illustrate, in an illustrative manner, the post-emergence herbicidal action of the compounds of the invention, the herbicidal activity being stated in percent.

[12] = system: Alopecurus myosuroides; test: Post-emergence herbicidal action against ALOMY
Procedure: as §2

[13] = system: Amaranthus retroflexus; test: Post-emergence herbicidal action against AMARE; details: visual assessment about 3 weeks after treatment
Procedure: as §2

[14] = system: Matricaria inodora; test: Post-emergence herbicidal action against MATIN; details: visual assessment about 3 weeks after treatment
Procedure: as §2

[15] = system: Pharbitis purpurea; test: Post-emergence herbicidal action against PHBPU; details: visual assessment about 3 weeks after treatment
Procedure: as §2

[16] = system: Setaria viridis; test: Post-emergence herbicidal action against SETVI; details: visual assessment about 3 weeks after treatment
Procedure: as §2

[17] = system: Veronica persica; test: Post-emergence herbicidal action against VERPE; details: visual assessment about 3 weeks after treatment
Procedure: as §2

[18] = system: Viola tricolor; test: Post-emergence herbicidal action against VIOTR
Procedure: as §2

[19] = system: Avena fatua; test: Pre-emergence herbicidal action against AVEFA; details: 80 g/ha; visual score after 3 weeks vs untreated controls
Text: as §1

[20] = system: Lolium rigidum; test: Pre-emergence herbicidal action against LOLRI; details: 80 g/ha
Text: as §1

[21] = system: Avena fatua; test: Post-emergence herbicidal action against AVEFA; details: 20 g/ha, visual assessment about 3 weeks after treatment
Procedure: as §2

[22] = system: Echinochloa crus-galli; test: Post-emergence herbicidal action against ECHCG; details: visual assessment about 3 weeks after treatment
Procedure: as §2

| Compound | Pre-emergence action against ABUTH ([1]; 20 g/ha) [%] | Pre-emergence action against ABUTH ([1]; 80 g/ha) [%] | Pre-emergence action against ALOMY ([2]; 80 g/ha) [%] | Pre-emergence action against AMARE ([3]; 20 g/ha) [%] | Pre-emergence action against AMARE ([3]; 80 g/ha) [%] | Pre-emergence action against ECHCG [4] [%] | Pre-emergence action against MATIN ([5]; 20 g/ha) [%] | Pre-emergence action against MATIN ([5]; 80 g/ha) [%] | Pre-emergence action against SETVI ([8]; 80 g/ha) [%] | Pre-emergence action against VIOTR ([10]; 80 g/ha) [%] | Post-emergence action against ABUTH ([11]; 5 g/ha) [%] | Post-emergence action against ABUTH ([11]; 20 g/ha) [%] | Post-emergence action against ALOMY ([12]; 20 g/ha) [%] | Post-emergence action against AMARE in % ([13]; 5 g/ha) [%] | Post-emergence action against AMARE in % ([13]; 20 g/ha) [%] | Post-emergence action against SETVI in % ([16]; 20 g/ha) [%] | Post-emergence action against VIOTR in % ([18]; 20 g/ha) [%] | Pre-emergence action against AVEFA [19] [%] | Post-emergence action against ALOMY ([12]; 5 g/ha) [%] | Post-emergence action against ECHCG in % ([22]; 20 g/ha) [%] | also measured |
| --- | --- | --- | --- | --- | --- | --- | --- | --- | --- | --- | --- | --- | --- | --- | --- | --- | --- | --- | --- | --- | --- |
| CN(CC(F)F)C(=O)c1c(C(F)(F)F)ccc(C(=O)Nc2nnnn2C)c1Cl [Example 1-128] | 100 | 100 | 100 | 100 | 100 | 100 | 80 | 90 | 100 | 100 | 80 | 90 | 80 | 100 | 100 | 90 | 100 |  |  |  | Pre-emergence action against DIGSA ([6]; 20 g/ha): 100%; Pre-emergence action against DIGSA ([6]; 80 g/ha): 100%; Pre-emergence action against POLCO ([7]; 20 g/ha): 80%; Pre-emergence action against POLCO ([7]; 80 g/ha): 80%; Pre-emergence action against SETVI ([8]; 20 g/ha): 90%; Pre-emergence action against VERPE [9]: 100%; Pre-emergence action against VIOTR ([10]; 20 g/ha): 100%; Post-emergence action against MATIN in % ([14]; 20 g/ha): 80%; Post-emergence action against PHBPU in % ([15]; 20 g/ha): 90%; Post-emergence action against VERPE in % ([17]; 20 g/ha): 90%; Post-emergence action against VIOTR in % ([18]; 5 g/ha): 90% |
| CCN(C)C(=O)c1c(Br)ccc(C(=O)Nc2nnnn2CC)c1Cl [Example 2-192] | 100 | 100 | 100 | 100 | 100 | 90 | 100 | 100 | 100 | 100 | 80 | 80 | 100 | 100 | 100 | 100 | 100 | 80 | 80 | 100 | Pre-emergence action against LOLRI [20]: 80%; Pre-emergence action against VERPE [9]: 80%; Post-emergence action against AVEFA in % [21]: 80%; Post-emergence action against PHBPU in % ([15]; 20 g/ha): 80%; Post-emergence action against SETVI in % ([16]; 5 g/ha): 100% |
| CCN(C)C(=O)c1c(C(F)F)ccc(C(=O)Nc2nnnn2CC)c1C [Example 2-51] | 100 | 100 | 100 | 90 | 90 |  | 90 | 100 |  | 80 | 90 | 90 | 90 | 90 | 100 | 90 | 90 | 80 | 80 | 90 | Pre-emergence action against POLCO ([7]; 80 g/ha): 90%; Post-emergence action against MATIN in % ([14]; 20 g/ha): 80%; Post-emergence action against SETVI in % ([16]; 5 g/ha): 80%; Post-emergence action against VERPE in % ([17]; 20 g/ha): 90%; Post-emergence action against VIOTR in % ([18]; 5 g/ha): 90% |
| CCN(C)C(=O)c1c(Br)ccc(C(=O)Nc2nnnn2C)c1Cl [Example 1-192] | 80 | 100 | 100 | 80 | 100 | 80 |  | 100 | 100 | 100 | 90 | 90 | 100 | 100 | 100 | 100 | 80 | 80 | 90 | 100 | Pre-emergence action against LOLRI [20]: 80%; Post-emergence action against PHBPU in % ([15]; 20 g/ha): 80%; Post-emergence action against SETVI in % ([16]; 5 g/ha): 100% |
| CN(C(=O)c1c(C(F)F)ccc(C(=O)Nc2nnnn2C)c1Cl)C1CC1 [Example 1-156] | 100 | 100 | 100 | 100 | 100 | 90 | 90 | 100 | 100 | 100 | 90 | 90 | 90 | 100 | 100 | 90 | 90 | 80 | 80 | 90 | Pre-emergence action against POLCO ([7]; 80 g/ha): 80%; Pre-emergence action against VERPE [9]: 90%; Post-emergence action against ECHCG in % ([22]; 5 g/ha): 90%; Post-emergence action against MATIN in % ([14]; 5 g/ha): 80%; Post-emergence action against MATIN in % ([14]; 20 g/ha): 90%; Post-emergence action against PHBPU in % ([15]; 5 g/ha): 80%; Post-emergence action against PHBPU in % ([15]; 20 g/ha): 90%; Post-emergence action against SETVI in % ([16]; 5 g/ha): 90%; Post-emergence action against VERPE in % ([17]; 5 g/ha): 80%; Post-emergence action against VERPE in % ([17]; 20 g/ha): 80%; Post-emergence action against VIOTR in % ([18]; 5 g/ha): 90% |
| CN(C)C(=O)c1c(Br)ccc(C(=O)Nc2nnnn2C)c1Cl [Example 1-191] | 100 | 100 | 100 |  | 100 | 90 | 80 | 100 | 100 | 100 | 80 | 90 | 100 | 100 | 100 | 100 |  | 90 | 80 | 100 | Pre-emergence action against ALOMY ([2]; 20 g/ha): 90%; Pre-emergence action against LOLRI [20]: 80%; Pre-emergence action against VERPE [9]: 90%; Post-emergence action against AVEFA in % [21]: 90% |

From patent US12599136B2, “Substituted isophthalic acid diamides and their use as herbicides” (Bayer Aktiengesellschaft, priority 2020, dated 2026)
